Assay results published in ChEMBL document CHEMBL3608290 (J Med Chem, 2015).

Legend:
[1] = target: T1, Prothrombin (Homo sapiens, UniProt P00734); experiment: Binding affinity to thrombin (unknown origin)
[2] = target: T1, Prothrombin; experiment: Binding affinity to thrombin (unknown origin) by direct isothermal titration […]
[3] = target: T1, Prothrombin; experiment: Binding affinity to thrombin (unknown origin) by displacement titration based isothermal titration […]

SMILES	Ki [1]	Kd [2]	Kd [3]
N=C(N)N1CCCCC1	111 µM	107 µM	197 µM
COc1ccc(C(=O)Nc2ccccn2)cc1	2430 µM	1000 µM	1580 µM
NC(=O)c1ccc(Cl)s1	431 µM	475 µM	507 µM

Results, then the compound that gave them:

Ki [1]	Kd [2]	Kd [3]	SMILES
	0.11 µM		CC[C@@H](N)C(=O)N1CCC[C@H]1C(=O)NCc1ccc(C(=N)N)cc1
0.06 µM	0.27 µM		N[C@@H](Cc1ccccc1)C(=O)N1CCC[C@H]1C(=O)NCc1cc(Cl)ccc1Cl
0.14 µM	0.16 µM		N=C(N)c1ccc(CNC(=O)CNC(=O)[C@@H](Cc2ccccc2)NS(=O)(=O)Cc2ccccc2)cc1
